According to ChEMBL document CHEMBL4715719, “Synthesis and biological properties of polyamine modified flavonoids as hepatocellular carcinoma inhibitors” (Eur J Med Chem, 2016):
Activity calls are given as the source filed them. The calls are words filed in the database; no cut-off is given here.

Columns and labels:
[1] = Toxicity in Kunming mouse implanted with mouse H22 cells assessed as change in mouse body weight at 0.4 mg/kg, iv administered for 7 consecutive days starting from day 8 post inoculation and measured after 16 days (reference value: 21 %); format: organism-based; conditions: in vivo, 192 h, time 8 day
H22 [2] = assay: Antimetastatic activity against mouse H22 cells implanted in Kunming mouse assessed as inhibition of metastasis at 0.4 mg/kg, iv administered for 7 consecutive days starting from day 11 post inoculation and measured after 18 days relative to control; format: functional; conditions: 192 h, time 8 day
H22 [3] = assay: Antimetastatic activity against mouse H22 cells implanted in Kunming mouse assessed as number of metastatic focus at 0.4 mg/kg, iv administered for 7 consecutive days starting from day 11 post inoculation and measured after 18 days (reference value: 5.73 +/- 14.6); format: functional; conditions: time 8 day
[4] = Toxicity in Kunming mouse implanted with mouse H22 cells assessed as change in body weight at 0.4 mg/kg, iv administered for 7 consecutive days starting from day 11 post inoculation and measured after 18 days (reference value: 5.2 %); format: organism-based; conditions: in vivo, 192 h, time 8 day
[5] = Cytotoxicity against human QSG7701 cells assessed as inhibition of cell proliferation at 1 uM measured after 48 hrs by MTT assay relative to control; format: cell-based
HepG2 [6] = assay: Antiproliferative activity against human HepG2 cells assessed as inhibition of cell proliferation at 1 uM measured after 48 hrs by MTT assay relative to control; format: functional
SMMC-7721 [7] = assay: Antiproliferative activity against human […] cells assessed as inhibition of cell proliferation at 5 uM measured after 48 hrs by MTT assay relative to control; format: functional
[8] = Toxicity in Kunming mouse implanted with mouse H22 cells assessed as mouse mortality at 0.4 mg/kg, iv administered for 7 consecutive days starting from day 8 post inoculation and measured after 16 days; format: organism-based; conditions: in vivo, 192 h, time 8 day
HepG2 [9] = assay: Antiproliferative activity against human HepG2 cells assessed as inhibition of cell proliferation at 5 uM measured after 48 hrs by MTT assay relative to control; format: functional
[10] = Cytotoxicity against human QSG7701 cells assessed as inhibition of cell proliferation at 5 uM measured after 48 hrs by MTT assay relative to control; format: cell-based
SMMC-7721 [11] = assay: Antiproliferative activity against human […] cells assessed as inhibition of cell proliferation at 1 uM measured after 48 hrs by MTT assay relative to control; format: functional
H22 [12] = assay: Antitumor activity against mouse H22 cells implanted in Kunming mouse assessed as reduction in tumor weight at 0.4 mg/kg, iv administered for 7 consecutive days starting from day 8 post inoculation and measured after 16 days (reference value: 2.15 +/- 0.51 g); format: functional; conditions: time 8 day
H22 [13] = assay: Antitumor activity against mouse H22 cells implanted in Kunming mouse assessed as tumor growth inhibition at 0.4 mg/kg, iv administered for 7 consecutive days starting from day 8 post inoculation and measured after 16 days relative to control; format: functional; conditions: 192 h, time 8 day, read-out: TGI
[14] = Toxicity in iv dosed Kunming mouse assessed as maximum tolerated dose; format: organism-based; conditions: in vivo
Mus musculus [15] = assay: Upregulation of phosphorylated JNK in Kunming mouse implanted with mouse H22 cells assessed as activation of p53 at 800 uM measured after 48 hrs by immunofluorescence analysis; format: functional
Mus musculus [16] = assay: Downregulation of Bcl-2 in Kunming mouse implanted with mouse H22 cells at 800 uM measured after 48 hrs by immunofluorescence analysis; format: functional
Mus musculus [17] = assay: Upregulation of phosphorylated p38 in Kunming mouse implanted with mouse H22 cells assessed as activation of p53 at 800 uM measured after 48 hrs by immunofluorescence analysis; format: functional
[18] = Toxicity in Kunming mouse implanted with mouse H22 cells assessed as mouse mortality at 100 mg/kg, iv administered for 7 consecutive days starting from day 8 post inoculation and measured after 16 days; format: organism-based; conditions: in vivo, 192 h, time 8 day
[19] = Toxicity in Kunming mouse implanted with mouse H22 cells assessed as change in mouse body weight at 100 mg/kg, iv administered for 7 consecutive days starting from day 8 post inoculation and measured after 16 days (reference value: 21 %); format: organism-based; conditions: in vivo, 192 h, time 8 day
HepG2 [20] = assay: Induction of apoptosis in human HepG2 cells assessed as activation of caspase 8 at 80 uM measured after 48 hrs by immunofluorescence assay; format: functional, cell-based
H22 [21] = assay: Antimetastatic activity against mouse H22 cells implanted in Kunming mouse assessed as inhibition of metastasis at 100 mg/kg, iv administered for 7 consecutive days starting from day 11 post inoculation and measured after 18 days relative to control; format: functional; conditions: 192 h, time 8 day
[22] = Cytotoxicity against human QSG7701 cells assessed as inhibition of cell proliferation at 30 uM measured after 48 hrs by MTT assay relative to control; format: cell-based
SMMC-7721 [23] = assay: Antiproliferative activity against human […] cells assessed as inhibition of cell proliferation at 30 uM measured after 48 hrs by MTT assay relative to control; format: functional
HepG2 [24] = assay: Induction of mitochondrial membrane potential loss in human HepG2 cells at 80 uM after 48 hrs by Rh123 staining based assay; format: functional, cell-based
HepG2 [25] = assay: Antiproliferative activity against human HepG2 cells assessed as inhibition of cell proliferation at 100 uM measured after 48 hrs by MTT assay relative to control; format: functional
HepG2 [26] = assay: Induction of apoptosis in human HepG2 cells assessed as activation of caspase 3 at 80 uM measured after 48 hrs by immunofluorescence assay; format: functional, cell-based
HepG2 [27] = assay: Induction of lysosomal impairment in human HepG2 cells at 80 uM after 48 hrs by Lyso-tracker Red staining based assay; format: functional, cell-based
[28] = Toxicity in Kunming mouse implanted with mouse H22 cells assessed as change in body weight at 100 mg/kg, iv administered for 7 consecutive days starting from day 11 post inoculation and measured after 18 days (reference value: 5.2 %); format: organism-based; conditions: in vivo, 192 h, time 8 day
HepG2 [29] = assay: Induction of apoptosis in human HepG2 cells assessed as activation of caspase 9 at 80 uM measured after 48 hrs by immunofluorescence assay; format: functional, cell-based
H22 [30] = assay: Antitumor activity against mouse H22 cells implanted in Kunming mouse assessed as reduction in tumor weight at 100 mg/kg, iv administered for 7 consecutive days starting from day 8 post inoculation and measured after 16 days (reference value: 2.15 +/- 0.51 g); format: functional; conditions: time 8 day
SMMC-7721 [31] = assay: Antiproliferative activity against human […] cells assessed as inhibition of cell proliferation at 100 uM measured after 48 hrs by MTT assay relative to control; format: functional
HepG2 [32] = assay: Induction of ROS generation in human HepG2 cells at 80 uM after 48 hrs by DCFH-DA staining based assay; format: functional, cell-based
HepG2 [33] = assay: Antiproliferative activity against human HepG2 cells assessed as inhibition of cell proliferation at 30 uM measured after 48 hrs by MTT assay relative to control; format: functional
H22 [34] = assay: Antitumor activity against mouse H22 cells implanted in Kunming mouse assessed as tumor growth inhibition at 100 mg/kg, iv administered for 7 consecutive days starting from day 8 post inoculation and measured after 16 days relative to control; format: functional; conditions: 192 h, time 8 day, read-out: TGI
[35] = Cytotoxicity against human QSG7701 cells assessed as inhibition of cell proliferation at 100 uM measured after 48 hrs by MTT assay relative to control; format: cell-based

Row | SMILES | inhibition at 48 h, 30 µM [22] | inhibition at 30 µM (SMMC-7721 [23]) | inhibition at 100 µM (HepG2 [25]) | inhibition at 100 µM (SMMC-7721 [31]) | inhibition at 30 µM (HepG2 [33]) | inhibition at 48 h, 100 µM [35] | other results
1 | O=C1c2c(O)ccc(O)c2C(=O)c2c(NCCNCCO)ccc(NCCNCCO)c21 [MITOXANTRONE] | – | – | – | – | – | – | Activity [1]: -6.6%; inhibition in vivo at 0.4 mg/kg (H22 [2]): 49.2%; Activity (H22 [3]): 29.1; Activity [4]: -0.8%; inhibition at 48 h, 1 µM [5]: 75.8%; inhibition at 1 µM (HepG2 [6]): 41.2%; inhibition at 5 µM (SMMC-7721 [7]): 62.2%; Activity [8]: Non-Toxic; inhibition at 5 µM (HepG2 [9]): 78.6%; inhibition at 48 h, 5 µM [10]: 82.5%; inhibition at 1 µM (SMMC-7721 [11]): 20.5%; Activity (H22 [12]): 0.57 g; inhibition in vivo at 0.4 mg/kg (H22 [13]): 73.4%; MTD [14]: 0.4 mg/kg
2 | CC(=O)Oc1ccccc1C(=O)O | – | – | – | – | – | – | Activity (Mus musculus [15]): Active; Activity (Mus musculus [16]): Active; Activity (Mus musculus [17]): Active
3 | O=c1c(O)c(-c2ccc(O)c(O)c2)oc2cc(O)cc(O)c12 [QUERCETIN] | < 5% | 29.5% | 56.3% | 62.9% | 33.2% | 36% | Activity [18]: Non-Toxic; Activity [19]: 6.3%; Activity (HepG2 [20]): Active; inhibition in vivo at 100 mg/kg (H22 [21]): 34.1%; Activity (HepG2 [24]): Active; Activity (HepG2 [26]): Active; Activity (HepG2 [27]): Active; Activity [28]: 2.1%; Activity (HepG2 [29]): Active; Activity (H22 [30]): 1.3 g; Activity (HepG2 [32]): Active; inhibition in vivo at 100 mg/kg (H22 [34]): 39.7%
4 | NCCCCNCCCCNCC(=O)NCc1cccc2c(=O)cc(-c3cccc4ccccc34)oc12 | 46.7% | 70.2% | 75.9% | 85.5% | 62% | 74.4% | –
5 | CCCCNCC(=O)NCc1cccc2c(=O)cc(-c3cccc4ccccc34)oc12 | 19.6% | 14.6% | 21.6% | 28.4% | 6% | 41.7% | –
6 | NCCCCNCC(=O)NCc1cccc2c(=O)cc(-c3cccc4ccccc34)oc12 | < 5% | < 5% | 16.1% | 39.8% | < 5% | 10.6% | –
7 | CN(C)CCNCC(=O)NCc1cccc2c(=O)cc(-c3cccc4ccccc34)oc12 | < 5% | < 5% | 7.5% | 16.6% | < 5% | 17.9% | –
8 | NCCCCNCCCNCC(=O)NCc1cccc2c(=O)cc(-c3cccc4ccccc34)oc12 | < 5% | 7.6% | 28.9% | 32.5% | < 5% | 22.4% | –
